Measured values reported in the NIST ThermoML archive (doi:10.1021/je301103d).

Assays:
[1] = 101.33 kPa, Liquid; for viscosity: Cone and plate viscometry; for mass density: Vibrating tube method; for electrical conductivity: conductivity meter (DDJS-308A)
[2] = refractive index (Na D-line) (dimensionless); conditions: 101.33 kPa, Liquid, Standard Abbe refractometry

C[N+](C)(C)CCO.NCC(=O)[O-] [2-hydroxy-N,N,N-trimethylethanaminium glycinate]
Conditions	electrical conductivity, [1] [S/m]	mass density, [1] [kg/m3]	refractive index, [2]	viscosity, [1] [mPa·s]
293.15 K	–	–	1.5238	–
298.15 K	0.00677	1145.2	1.5224	182.3
303.15 K	0.0104	1142.31	1.5213	119.9
308.15 K	0.0147	1139.43	1.5204	84.3
313.15 K	0.022	1136.7	1.5194	50.2
318.15 K	0.0292	1133.97	1.5182	29.4
323.15 K	0.0388	1131.22	1.5171	19.9
328.15 K	0.0497	1128.46	1.5158	14.3
333.15 K	0.0609	1125.7	1.5148	10.4
338.15 K	0.0781	1122.93	1.5137	7.2
343.15 K	0.0993	1120.22	1.5125	5.5
348.15 K	0.122	1117.53	–	4.3
353.15 K	0.15	1114.83	–	3.5

C[N+](C)(C)CCO.NCCC(=O)[O-] [2-hydroxy-N,N,N-trimethylethanaminium β-alaninate]
Conditions	electrical conductivity, [1] [S/m]	mass density, [1] [kg/m3]	refractive index, [2]	viscosity, [1] [mPa·s]
293.15 K	–	–	1.5322	–
298.15 K	0.00071	1120.29	1.5313	5092.1
303.15 K	0.00143	1117.51	1.5306	3022.2
308.15 K	0.00268	1114.55	1.5294	1820.4
313.15 K	0.00494	1111.77	1.5285	1146.2
318.15 K	0.00907	1108.98	1.5277	723.2
323.15 K	0.0134	1106.2	1.5266	470.7
328.15 K	0.0178	1103.43	1.526	322.4
333.15 K	0.0227	1100.63	1.5249	220.7
338.15 K	0.0295	1097.83	1.5238	155.9
343.15 K	0.0379	1095.04	1.5225	112
348.15 K	0.0496	1092.32	–	79.3
353.15 K	0.0615	1089.6	–	56.7
